System: 648629-189-R-J1-PDC spheroids with HUVEC/MSC, viability
Test: Anticancer human tumor 648629-189-R-J1-PDC patient-derived bladder carcinoma cell line growth inhibition [PI3K]
Conditions: for IC50: curve of first compound; for viability, T/C: stronger effect = lower value
Excerpt: Combinatorial screen of targeted agents with the PI3K inhibitors inavolisib, alpelisib, duvelisib, and copanlisib in multi-cell type tumor spheroids
A high-throughput screen of multi-cell type tumor spheroids was designed to identify active combinations of targeted small molecules and PI3K pathway inhibitors. Complex spheroids include a stromal component modeled by human endothelial cells (HUVEC) and fibroblasts modeled by human mesenchymal stem cells (MSCs). The concentration ranges selected for each drug and investigational agent were based upon clinically achievable concentrations if the clinical Cmax of the agent was known.
Compounds. The drugs and investigational agents: inavolisib (NSC800729), alpelisib (NSC765974), duvelisib (NSC772469), copanlisib (NSC816437), ipatasertib (NSC767898), afuresertib (NSC778305), talazoparib (NSC767125), sapanisertib (NSC764658), selumetinib (NSC741078), tovorafenib (DAY101, NSC766906), vemurafenib (NSC761431), ravoxertinib (NSC781343), sotorasib (NSC818433), MRTX1133 (NSC 836407), abemaciclib (NSC 768073), palbociclib (NSC758247), venetoclax (NSC 766270), SY5609 (NSC837396), enzalutamide (NSC755605), and darolutamide (NSC825331), were obtained from the National Cancer Institute (NCI) Developmental Therapeutics Program Chemical Repository. The FDA-approved anticancer drug set is available from the NCI Developmental Therapeutics Program. […] The stock solutions were prepared in dimethyl sulfoxide (DMSO, Sigma-Aldrich, St. Louis, MO, cat. D2650) at 800-fold the tested concentration and stored at -70 degrees C prior to their use. All drugs and investigational agents were tested over a range starting from a high concentration at or near the clinical Cmax and decreasing in half-log increments. If the clinical Cmax for an agent had not been determined, the highest concentration tested was 10 microM.
Cell Culture. All cells were maintained in an incubator at 37 degrees C and 5% CO2 with 95% humidity. The PDC lines were cultured according to standard operating procedures established by the NCI PDMR (https://pdmr.cancer.gov/sops/default.htm). All PDCs were thawed and cultured in Matrigel-coated flasks prepared with a working solution of 1X Ham's F-12 nutrient mix, without supplementation (Invitrogen, Waltham, MA, cat. 11765054), 100 U/mL penicillin-streptomycin (Invitrogen, cat. 15140122), and 2.5% Matrigel (Corning Inc., Corning, NY, cat. 354248) for the first three passages. The 354836-022-R-J1-PDC, 475296-252-R-J1-PDC, and 997726-040-R-J2-PDC lines were cultured in 6A media, which includes advanced DMEM/F-12 (Thermo Fisher Scientific, cat. 12634028), 10 mM HEPES (Thermo Fisher Scientific, cat. 15630080), 1X GlutaMAX supplement (Thermo Fisher Scientific, cat. 35050061), 0.1 mg/mL primocin (InvivoGen, San Diego, CA, cat. ant-pm-2), 10% defined fetal bovine serum, heat inactivated (HyClone Laboratories Inc., Logan, UT, cat. SH30070.03HI), 50% L-WRN conditioned media (ATCC, cat. CRL-3276), 1.25 mM N-Acetyl-L-cysteine (Sigma-Aldrich, cat. A9165), 10 mM nicotinamide (Sigma-Aldrich, cat. N0636), 1X B-27 supplement (Thermo Fisher Scientific, cat. 17504044), 1X N-2 supplement (Thermo Fisher Scientific, cat. 17502048), and 10 microM Y-27632 dihydrochloride (Tocris Bioscience, Bristol, United Kingdom, cat. 1254). The 624824-186-R-J2-PDC line was cultured in 6C/Colon 1B media, which includes all 6A media components plus 50 ng/mL human EGF recombinant protein (Thermo Fisher Scientific, cat. PHG0311). […]
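Further: spheroids exposed to agents for seven days before reading.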
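Wherever viability, T/C is given: percent of vehicle control luminescence where 100% = DMSO treated spheroids.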

SMILES: CC1(C)CCC(Nc2ncc(C(F)(F)F)c(-c3c[nH]c4c(P(C)(C)=O)c(C#N)ccc34)n2)CN1 (configuration not stated) + CC(Nc1ccc2c(c1)OCCn1cc(N3C(=O)OCC3C(F)F)nc1-2)C(N)=O
- IC50 (second compound 0.00316 µM): < 31.6 nM
- IC50 (second compound 0.01 µM): < 31.6 nM
- IC50 (second compound 0.0316 µM): < 31.6 nM
- IC50 (second compound 0.1 µM): < 31.6 nM
- IC50 (second compound 0.316 µM): < 31.6 nM
- IC50 (second compound 1 µM): < 31.6 nM
- viability, T/C (second compound 0.00316 µM, first compound 0.0316 µM): 27.7%
- viability, T/C (second compound 0.00316 µM, first compound 0.1 µM): 27.2%
- viability, T/C (second compound 0.00316 µM, first compound 0.316 µM): 26.8%
- viability, T/C (second compound 0.00316 µM, first compound 1 µM): 35.4%
- viability, T/C (second compound 0.00316 µM, first compound 3.16 µM): 38.7%
- viability, T/C (second compound 0.00316 µM, first compound 10 µM): 2.42%
- viability, T/C (second compound 0.01 µM, first compound 0.0316 µM): 25.3%
- viability, T/C (second compound 0.01 µM, first compound 0.1 µM): 25.8%
- viability, T/C (second compound 0.01 µM, first compound 0.316 µM): 26.3%
- viability, T/C (second compound 0.01 µM, first compound 1 µM): 31.1%
- viability, T/C (second compound 0.01 µM, first compound 3.16 µM): 38.2%
- viability, T/C (second compound 0.01 µM, first compound 10 µM): 3.09%
- viability, T/C (second compound 0.0316 µM, first compound 0.0316 µM): 26.6%
- viability, T/C (second compound 0.0316 µM, first compound 0.1 µM): 23.4%
- viability, T/C (second compound 0.0316 µM, first compound 0.316 µM): 26.6%
- viability, T/C (second compound 0.0316 µM, first compound 1 µM): 28.5%
- viability, T/C (second compound 0.0316 µM, first compound 3.16 µM): 37.6%
- viability, T/C (second compound 0.0316 µM, first compound 10 µM): 3%
- viability, T/C (second compound 0.1 µM, first compound 0.0316 µM): 24.1%
- viability, T/C (second compound 0.1 µM, first compound 0.1 µM): 23.4%
- viability, T/C (second compound 0.1 µM, first compound 0.316 µM): 26.1%
- viability, T/C (second compound 0.1 µM, first compound 1 µM): 23.4%
- viability, T/C (second compound 0.1 µM, first compound 3.16 µM): 33.1%
- viability, T/C (second compound 0.1 µM, first compound 10 µM): 2.67%
- viability, T/C (second compound 0.316 µM, first compound 0.0316 µM): 23.4%
- viability, T/C (second compound 0.316 µM, first compound 0.1 µM): 25.8%
- viability, T/C (second compound 0.316 µM, first compound 0.316 µM): 23.8%
- viability, T/C (second compound 0.316 µM, first compound 1 µM): 28.9%
- viability, T/C (second compound 0.316 µM, first compound 3.16 µM): 29.8%
- viability, T/C (second compound 0.316 µM, first compound 10 µM): 2.95%
- viability, T/C (second compound 1 µM, first compound 0.0316 µM): 19.8%
- viability, T/C (second compound 1 µM, first compound 0.1 µM): 22.6%
- viability, T/C (second compound 1 µM, first compound 0.316 µM): 26.1%
- viability, T/C (second compound 1 µM, first compound 1 µM): 23.1%
- viability, T/C (second compound 1 µM, first compound 3.16 µM): 27.2%
- viability, T/C (second compound 1 µM, first compound 10 µM): 1.52%

Source: PubChem BioAssay AID1963974 (Molecular Pharmacology Branch, DTP, NCI, 2024)
